Measurements as given in patent publication US20080181866A1, “Amido Anti-viral Compounds” (Genelabs Technologies, Inc., priority 2006, published 2008).

The compounds below were run on HCV replication (assay: HCV replicon assay (luciferase) in ET (Huh-lucubineo-ET) cell line). Settings: Hepatitis C virus, tested at 5 μM; ET replicon cells; luciferase activity measured 48-72 hours later; relative to no compound control.
Assay type: cell-based
Procedure: A cell line, ET (Huh-lucubineo-ET) was used for screening of compounds of the present invention for inhibiting HCV replication. The ET cell line was stably transfected with RNA transcripts harboring a I389luc-ubi-neo/NS3-3′/ET; replicon with firefly luciferase-ubiquitin-neomycin phosphotransferase fusion protein and EMCV-IRES driven NS3-5B polyprotein containing the cell culture adaptive mutations (E1202G; T12801; K1846T) (Krieger at al, 2001 and unpublished). The ET cells were grown in DMEM (Dulbeco's Modified Eagle's Medium), supplemented with 10% fetal calf serum, 2 mM Glutamine, Penicillin (100 IU/mL)/Streptomycin (100 μg/mL), 1× nonessential amino acids, and 250 μg/mL G418 (“Geneticin”). They were all available through Life Technologies (Bethesda, Md.). The cells were plated at 0.5-1.0×10^4 cells/well in the 96 well plates and incubated for 24 hrs before adding testing compounds. Then the compounds were added to the cells to achieve a final concentration of 0.1 nM to 50 μM and a final DMSO concentration of 0.5%. Luciferase activity were measured 48-72 hours later by adding a lysis buffer and the substrate (Catalog number Glo-lysis buffer E2661 and Bright-Glo luciferase system E2620 Promega, Madison, Wis.). Cells should not be too confluent during the assay. Percent inhibition of replication was plotted relative to no compound control. Under the same condition, cytotoxicity of the compounds was determined using cell proliferation reagent, WST-1 (Roche, Germany). The compounds showing antiviral activities, but no significant cytotoxicities were chosen to determine EC50 and TC50. For these determinations, a 10 point 2-fold serial dilution for each compound was used, which spans a concentration range of 1000 fold. EC50 and similarly TC50 values were calculated by fitting % inhibition at each concentration to the following equation:
% inhibition=100%/[(IC50/[I])^b+1]
where b is Hill's coefficient.
In some preferred embodiments compounds of Formula I will have a % inhibition of at least 20% when tested at 5 μM. In other embodiments the compounds of Formula I will have a % inhibition of at least 50% when tested at 5 μM.

In order of falling inhibition at 5 µM:
1. O=C(NC1CC1)c1ccc(-c2csc(NC(=O)[C@@H]3C[C@@H]4CCCC[C@@H]4N3C(=O)OCc3ccccc3)n2)cc1 [Compound 7043, (2S,3aS,7aS)-2-[4-(4-Cyclopropylcarbamoyl-phenyl)-thiazol-2-ylcarbamoyl]-octahydro-indole-1-carboxylic acid benzyl ester]  100%
2. N#Cc1cccc(C2SC[C@@H](C(=O)Nc3nc(-c4ccc(C(=O)NC5CC5)cc4)cs3)N2C(=O)OCc2ccccc2)c1 (mixture of isomers) [Compound 7033, (R)-2-(3-Cyano-phenyl)-4-[4-(4-cyclopropylcarbamoyl-phenyl)-thiazol-2-ylcarbamoyl]-thiazolidine-3-carboxylic acid benzyl ester]  100%
3. O=C(NC1CC1)c1ccc(-c2csc(NC(=O)[C@@H]3CSC(c4ccncc4F)N3C(=O)OCc3ccccc3)n2)cc1 (mixture of isomers) [Compound 7008, (R)-4-[4-(4-Cyclopropylcarbamoyl-phenyl)-thiazol-2-ylcarbamoyl]-2-(3-fluoro-pyridin-4-yl)-thiazolidine-3-carboxylic acid benzyl ester]  100%
4. O=C(NC1CC1)c1ccc(-c2csc(NC(=O)[C@@H]3CSC(CCCCC(=O)N4CCCCC4)N3C(=O)OCc3ccccc3)n2)cc1 (stereo in doubt) [Compound 7102, 4-[4-(4-Cyclopropylcarbamoyl-phenyl)-thiazol-2-ylcarbamoyl]-2-(5-oxo-5-piperidin-1-yl-pentyl)-thiazolidine-3-carboxylic acid benzyl ester]  100%
5. O=C(NC1CC1)c1ccc(-c2csc(NC(=O)[C@@H]3CSC(C4CCOCC4)N3C(=O)CC3CC3)n2)cc1 (some centres unmarked) [Compound 7104, 3-(2-Cyclopropyl-acetyl)-2-(tetrahydropyran-4-yl)-thiazolidine-4-carboxylic acid [4-(4-cyclopropylcarbamoyl-phenyl)-thiazol-2-yl]-amide]  100%
6. CNC(=O)CCC1SC[C@@H](C(=O)Nc2nc(-c3ccc(C(=O)NC4CC4)cc3)cs2)N1C(=O)OCc1ccccc1 (stereo in doubt) [Compound 7091, 4-[4-(4-Cyclopropylcarbamoyl-phenyl)-thiazol-2-ylcarbamoyl]-2-(2-methylcarbamoyl-ethyl)-thiazolidine-3-carboxylic acid benzyl ester]  100%
7. O=C(NC1CC1)c1ccc(-c2csc(NC(=O)[C@@H]3CSC(c4cccc(CN5CCOCC5)c4)N3C(=O)OCc3ccccc3)n2)cc1 (mixture of isomers) [Compound 7080, 4-[4-(4-Cyclopropylcarbamoyl-phenyl)-thiazol-2-ylcarbamoyl]-2-(3-morpholin-4-ylmethyl-phenyl)-thiazolidine-3-carboxylic acid benzyl ester]  100%
8. N#Cc1ccc(C2SC[C@@H](C(=O)Nc3nc(-c4ccc(C(=O)NC5CC5)cc4)cs3)N2C(=O)OCc2ccccc2)cc1 (mixture of isomers) [Compound 7017, (R)-2-(4-Cyano-phenyl)-4-[4-(4-cyclopropylcarbamoyl-phenyl)-thiazol-2-ylcarbamoyl]-thiazolidine-3-carboxylic acid benzyl ester]  100%
9. O=C(NC1CC1)c1ccc(-c2csc(NC(=O)[C@@H]3CSC(C4CCNCC4)N3C(=O)OCc3ccccc3)n2)cc1 (mixture of isomers) [Compound 7042, (R)-4-[4-(4-Cyclopropylcarbamoyl-phenyl)-thiazol-2-ylcarbamoyl]-2-piperidin-4-yl-thiazolidine-3-carboxylic acid benzyl ester]  100%
10. O=C(NC1CC1)c1ccc(-c2csc(NC(=O)[C@@H]3CS[C@@H](c4cccnc4)N3C(=O)OCc3ccccc3)n2)cc1 [Compound 7009, (2S,4R)-4-[4-(4-Cyclopropylcarbamoyl-phenyl)-thiazol-2-ylcarbamoyl]-2-pyridin-3-yl-thiazolidine-3-carboxylic acid benzyl ester]  99.9%
11. O=C(NC1CC1)c1ccc(-c2csc(NC(=O)[C@@H]3COC(CC4CCOCC4)N3C(=O)OCc3ccccc3)n2)cc1 (stereo in doubt) [Compound 7095, 4-[4-(4-Cyclopropylcarbamoyl-phenyl)-thiazol-2-ylcarbamoyl]-2-(tetrahydropyran-4-ylmethyl)-oxazolidine-3-carboxylic acid benzyl ester]  99.9%
12. COC(=O)CCC1SC[C@@H](C(=O)Nc2nc(-c3ccc(C(=O)NC4CC4)cc3)cs2)N1C(=O)OCc1ccccc1 (some centres unmarked) [Compound 7121, 4-[4-(4-Cyclopropylcarbamoyl-phenyl)-thiazol-2-ylcarbamoyl]-2-(2-methoxycarbonyl-ethyl)-thiazolidine-3-carboxylic acid benzyl ester]  99.8%
13. O=C(NC1CC1)c1ccc(-c2csc(NC(=O)[C@@H]3CSC(c4ccc(F)cc4)N3C(=O)OCc3ccccc3)n2)cc1 (mixture of isomers) [Compound 7013, (R)-4-[4-(4-Cyclopropylcarbamoyl-phenyl)-thiazol-2-ylcarbamoyl]-2-(4-fluoro-phenyl)-thiazolidine-3-carboxylic acid benzyl ester]  99.7%
14. O=C(NC1CC1)c1ccc(-c2csc(NC(=O)[C@@H]3CSC(C4CCCCC4)N3C(=O)OCc3ccccc3)n2)cc1 (mixture of isomers) [Compound 7035, (R)-2-Cyclohexyl-4-[4-(4-cyclopropylcarbamoyl-phenyl)-thiazol-2-ylcarbamoyl]-thiazolidine-3-carboxylic acid benzyl ester]  98.9%
15. O=C(Cc1cccc(NC(=O)[C@@H]2CSC(c3ccncc3)N2C(=O)OCc2ccccc2)c1)NCc1ccc(Cl)cc1 (stereo in doubt) [Compound 7115, 4-{3-[(4-Chloro-benzylcarbamoyl)-methyl]-phenylcarbamoyl}-2-pyridin-4-yl-thiazolidine-3-carboxylic acid benzyl ester]  98%
16. CC(C)(C)C(=O)N1C(C2CCOCC2)SC[C@H]1C(=O)Nc1nc(-c2ccc(C(=O)NC3CC3)cc2)cs1 (some centres unmarked) [Compound 7070, 3-(2,2-Dimethyl-propionyl)-2-(tetrahydro-pyran-4-yl)-thiazolidine-4-carboxylic acid [4-(4-cyclopropylcarbamoyl-phenyl)-thiazol-2-yl]-amide]  96.1%
17. Cn1ccnc1C1SC[C@@H](C(=O)Nc2nc(-c3ccc(C(=O)NC4CC4)cc3)cs2)N1C(=O)OCc1ccccc1 (single isomer, unassigned) [Compound 7054, 4-[4-(4-Cyclopropylcarbamoyl-phenyl)-thiazol-2-ylcarbamoyl]-2-(1-methyl-1H-imidazol-2-yl)-thiazolidine-3-carboxylic acid benzyl ester]  94.1%
18. O=C(Nc1ccc(CNS(=O)(=O)c2ccc(-c3ccccc3)cc2)cc1)[C@@H]1CSC(c2ccncc2)N1C(=O)OCc1ccccc1 (stereo in doubt) [Compound 7073, 4-{4-[(Biphenyl-4-sulfonylamino)-methyl]-phenylcarbamoyl}-2-pyridin-4-yl-thiazolidine-3-carboxylic acid benzyl ester]  65.3%
19. Cc1ccc2[nH]c(Cc3ccc(NC(=O)[C@@H]4CSC(c5ccncc5)N4C(=O)OCc4ccccc4)cc3)nc2c1 (some centres unmarked) [Compound 7117, 4-[4-(5-Methyl-1H-benzoimidazol-2-ylmethyl)-phenylcarbamoyl]-2-pyridin-4-yl-thiazolidine-3-carboxylic acid benzyl ester]  42.4%
20. COCCNC(=O)c1ccc(NC(=O)[C@@H]2CSC(c3ccncc3)N2C(=O)OCc2ccccc2)cc1 (stereo in doubt) [Compound 7135, 4-[4-(2-Methoxy-ethylcarbamoyl)-phenylcarbamoyl]-2-pyridin-4-yl-thiazolidine-3-carboxylic acid benzyl ester]  22.1%
21. O=C(NCc1ccccc1)c1ccc(NC(=O)[C@@H]2CSC(c3ccncc3)N2C(=O)OCc2ccccc2)cc1 (some centres unmarked) [Compound 7075, 4-(4-Benzylcarbamoyl-phenylcarbamoyl)-2-pyridin-4-yl-thiazolidine-3-carboxylic acid benzyl ester]  21.3%
22. CC(C)(C)OC(=O)N1C[C@@H](c2ccccc2)C[C@H]1C(=O)Nc1nc(-c2ccc(C(=O)NC3CC3)cc2)cs1 [Compound 7027, (2S,4R)-2-[4-(4-Cyclopropylcarbamoyl-phenyl)-thiazol-2-ylcarbamoyl]-4-phenyl-pyrrolidine-1-carboxylic acid tert-butyl ester]  6.9%
23. O=C(Cc1ccc(NC(=O)[C@@H]2CSC(c3ccncc3)N2C(=O)OCc2ccccc2)cc1)NC1CC1 (some centres unmarked) [Compound 7068, 4-(4-Cyclopropylcarbamoylmethyl-phenylcarbamoyl)-2-pyridin-4-yl-thiazolidine-3-carboxylic acid benzyl ester]  6%
